In patent publication US20240398836A1, “EPOXY STEROIDS” (priority 2021, published 2024):

Assays:
[1] = tested on: pancreatic carcinoma cells (DAN-G); assay: Apoptosis in pancreatic carcinoma cells; type: cell-based; details: comparable experiments
Protocol: In contrast to conventional glucocorticoids, the steroid WIL 071 can induce apoptosis also in pancreatic carcinoma cells.
The DNA fragmentation was measured by flow cytometry, see FIG. 11. The experiments were performed in triplicate. The error bars show the standard deviations of the measured values of three independent experiments.
The standard treatment for pancreatic carcinoma includes 5-fluorouracil.

Nalm-6 cells = assay: Half-maximal apoptosis induction (AC50) in Nalm-6 cells; type: cell-based; details: Homo sapiens; Nalm-6, 72 h, flow cytometry; read-out: Biological effect: half-maximal apoptosis induction (AC50)
Protocol: Apoptosis Induction in Nalm-6 Cells after Treatment with WIL-071 or Different Steroid Derivatives.
(§1) The cells were incubated in 6-well plates with 1.0·10^5 cells/mL in two milliliters of medium with the respective steroid derivative in different concentrations. The included solvent control (DMSO) served as a control, which was subtracted from all the other measured values, in order not to take into account the spontaneous apoptosis of the cells that takes place independently of the concentration of active ingredient. After 72 h, a modified cell cycle analysis was performed, in order to quantify the proportion of apoptotic cells by flow cytometry. For each concentration of the steroid, the respective mean values f standard deviations, n=3 (*: p<0.05 vs. DMSO, t test) were determined. Using the curve of the dose-effect relationship (steroid concentration−apoptosis induction) formed from these measured values, the steroid concentration at which apoptosis was triggered in 50% of the tested leukemia cells was read.

[2] = tested on: prednisolone-resistant leukemia cells; assay: Overcoming of prednisolone resistance; type: cell-based; details: 72 h
Protocol: as §1
Prednisolone resistance is said to be overcome if the induction of apoptosis in prednisolone-resistant leukemia cells is as high as it is in normal leukemia cells.

[3] = Tolerability (dose escalation, MTD) in an animal model; type: in vivo, NOG-F (Taconic) mice
Protocol: An incremental increase of dose of the three substances Wil-071, Wil-232 and Wil-369 was performed in 8-week-old female NOG-F (Taconic) mice. Different mice were administered one of up to seven different doses of the test substances. The start was on day 1 with the lowest dose of 10 mg/kg. […] All in all, if possible, the doses 10, 20, 40, 80, 100, 150 and 200 mg/kg are tested. Subsequently, the maximum tolerable dose (MTD) was administered to three more animals, and these were subsequently observed for one week, in order to be able to observe any developing symptoms. For this purpose, the animals were observed and weighed on a daily basis. The body weight is considered an indicator of the general condition of the animals.
(§2) For the MTD experiment, Wil-071 was dissolved in 100% DMSO, and then diluted 1:50 with a 20% (w/v) 2-hydroxypropyl-beta-cyclodextrin (HPβCD) solution. Thus, 200 μL of injection solution (per mouse) of a 40 mg/kg dose could be achieved. For 80, 100 and 150 mg/kg, the DMSO proportion was increased to up to 4% (v/v) in the final injection solution. In addition, ultrasound had to be employed, and the sample had to be heated at 60° C. for up to 45 min. 200 mg/kg was reached only as a milky suspension. […] Therefore, Wil-071 can be considered non-toxic up to 150 mg/kg. The final MTD could not be determined because of the insufficient solubility.
For 100 mg/kg of Wil-232, the end concentration of DMSO in the injection solution was 2%. In order to dissolve Wil-232, the sample also had to be treated with ultrasound, and heated at 60° C. The dose of 150 mg/kg was achieved only with 4% DMSO, and 200 mg/kg was achieved only as a suspension. […] Otherwise, there were no signs of toxicity, so that the substance can be considered tolerable up to 150 mg/kg. In this case too, a final MTD cannot be determined because of insufficient solubility.
Using a DMSO stock and 20% HPβCD solution, a maximum of only 5 mg/ml was dissolved. A further increase could not be achieved even with more DMSO or HPβCD. Thus, above the dose of 40 mg/kg, a higher injection volume was injected in order to reach the corresponding dose. […] For the tolerability under the current solubility conditions, a value of […] is to be applied. This dose was injected into the 8 animals for pharmacokinetics. In this case too, a final MTD cannot be determined because of insufficient solubility.

[4] = type: physicochemical
Protocol: All three substances are sparingly soluble in tested injection solutions, so that the maximal dose could not exceed 200 mg/kg.
as §2
For 100 mg/kg of Wil-232, the end concentration of DMSO in the injection solution was 2%. In order to dissolve Wil-232, the sample also had to be treated with ultrasound, and heated at 60° C. The dose of 150 mg/kg was achieved only with 4% DMSO, and 200 mg/kg was achieved only as a suspension. […] In this case too, a final MTD cannot be determined because of insufficient solubility.
Using a DMSO stock and 20% HPβCD solution, a maximum of only 5 mg/ml was dissolved. […] In this case too, a final MTD cannot be determined because of insufficient solubility.

[5] = Distribution in serum, brain and liver after injection; type: in vivo, NOG-F (Taconic) mice
Protocol: Following the determination of the MTD, eight animals were again injected the MTD of the substances, and after 1, 2, 8 and 24 hours, 2 animals each were killed. For pharmacokinetics, the liver, brain and serum of the animals were shock-frosted in liquid nitrogen, and analyzed (see Example 15).
The samples obtained in Example 4 were examined for the contents of the substances. Since WIL-369 can be hydrolyzed to WIL-071, both WIL-369 and WIL-071 were determined in the samples. As far as these substances were detectable in the samples, this is represented in the Figures.

Structure (SMILES) | AC50 (Nalm-6 cells) [µM] | EC50 [2] [µM] | further results
O=c1[nH]cc(F)c(=O)[nH]1 [5-fluorouracil] |  |  | apoptosis ([1]; at 30 μM): 24.9%; apoptosis ([1]; at 50 μM): 21.2%
O=C1[O][Pt]2([NH][C@@H]3CCCC[C@H]3[NH]2)[O]C1=O [Oxaliplatin] |  |  | apoptosis ([1]; at 50 μM): 14%
CC(C)CCC[C@@H](C)[C@H]1CC[C@H]2[C@@H]3[C@H]4OC[C@@]5(CC[C@H](OS(C)(=O)=O)C[C@]5(O)C4=O)[C@H]3CC[C@]12C [TAS-S389, (7β,19-epoxy-5α-hydroxy-6-on-cholestan-3β-yl) ester of methanesulfonic acid] | ~20 | ~30 | 
CC(C)CCC[C@@H](C)[C@H]1CC[C@H]2[C@@H]3[C@H]4OC[C@@]5(CC=CC[C@]5(O)C4=O)[C@H]3CC[C@]12C [TAS-S392, 7β,19-epoxy-5α-hydroxy-cholest-2-en-6-one] | ~46 | ~39 | 
CC(C)CCC[C@@H](C)[C@H]1CC[C@H]2[C@@H]3[C@H]4OC[C@@]5(CCCC[C@]5(O)C4=O)[C@H]3CC[C@]12C [TAS-S398, 7β,19-epoxy-5α-hydroxy-cholestan-6-one] | ~80 | ~67 | 
C=C1[C@@H]2OC[C@@]3(CC[C@H](O)C[C@]13O)[C@H]1CC[C@]3(C)[C@@H]([C@H](C)CCCC(C)C)CC[C@H]3[C@H]21 [TAS-S399, 7β,19-epoxy-6-methylen-cholest-3β,5α-diol] | 50 | ~75 | 
CC(C)CCC[C@@H](C)[C@H]1CC[C@H]2[C@@H]3[C@H]4OC[C@@]5(CC[C@@H](O)C[C@]5(O)C4=O)[C@H]3CC[C@]12C [TAS-S403, 3α,5α-dihydroxy-7β,19-epoxy-cholestan-6-one] | 100 | 20 | 
CC(=O)O[C@@H]1CC[C@@]23CO[C@@H](C(=O)[C@@]2(O)C1)[C@H]1[C@@H]2CC[C@H]([C@H](C)CCCC(C)C)[C@@]2(C)CC[C@@H]13 [TAS-S405, 3α-acetoxy-5α-hydroxy-7β,19-epoxy-cholestan-6-one] | 90 | ~20 | 
CC(C)CCC[C@@H](C)[C@H]1CC[C@H]2[C@@H]3[C@H]4OC[C@@]5(CC[C@H](O)C[C@]5(O)C4(C)O)[C@H]3CC[C@]12C (stereo partly drawn) [TAS-S406, 7β,19-epoxy-6α-methylcholestan-3β,5α,6β-triol] | 13 | ~17 | 
COC(=O)O[C@H]1CC[C@@]23CO[C@@H](C(=O)[C@@]2(O)C1)[C@H]1[C@@H]2CC[C@H]([C@H](C)CCCC(C)C)[C@@]2(C)CC[C@@H]13 [WIL357, 7β,19-epoxy-5α-hydroxy-6-on-cholestan-3β-yl-methyl carbonate] | > 50 | > 50 | 
CC(C)CCC[C@@H](C)[C@H]1CC[C@H]2[C@@H]3[C@H]4OC[C@@]5(CC[C@H](OC(=O)CNC(=O)OC(C)(C)C)C[C@]5(O)C4=O)[C@H]3CC[C@]12C [WIL360, N-Boc-glycin (7β,19-epoxy-5α-hydroxy-6-on-cholestan-3β-yl) ester] | > 20 | 20 | 
CC(C)CCC[C@@H](C)[C@H]1CC[C@H]2[C@@H]3[C@H]4OC[C@@]5(CC[C@H](OC(=O)CO)C[C@]5(O)C4=O)[C@H]3CC[C@]12C [WIL364, (7β,19-epoxy-5α-hydroxy-6-on-cholestan-3β-yl) ester of glycolic acid] | ~18 | ~17.5 | 
C=C(CC(=O)O[C@H]1CC[C@@]23CO[C@@H](C(=O)[C@@]2(O)C1)[C@H]1[C@@H]2CC[C@H]([C@H](C)CCCC(C)C)[C@@]2(C)CC[C@@H]13)C(=O)OC [WIL367, 4-(7β,19-epoxy-5α-hydroxy-6-on-cholestan-3β-yl)-1-methyl ester of itaconic acid] | ~8 | ~12.5 | 
COC(=O)/C=C/C(=O)O[C@H]1CC[C@@]23CO[C@@H](C(=O)[C@@]2(O)C1)[C@H]1[C@@H]2CC[C@H]([C@H](C)CCCC(C)C)[C@@]2(C)CC[C@@H]13 [WIL369, (7β,19-epoxy-5α-hydroxy-6-on-cholestan-3β-yl)methyl ester of fumaric acid] | ~3 | 5 | mortality ([3]; 100 mg/kg dose group, one animal): found dead on day 3 after the injection; behaviour after injection ([3]; 100 mg/kg in twice as large injection volumes): the animals lay down on their side for some moments, but recovered quickly; tolerability under the current solubility conditions ([3]; mice, injection): 50 mg/kg; maximum dissolved concentration [4]: ≤ 5 mg/mL; solubility [4]: lowest solubility; distribution in the liver [5]: a quick degradation takes place in the liver; it is the only place where WIL-369 is found
CC(=O)O[C@H]1CC[C@@]23CO[C@@H](C(=O)[C@@]2(O)C1)[C@H]1[C@@H]2CC[C@H]([C@H](C)CCCC(C)C)[C@@]2(C)CC[C@@H]13 [WIL-232, 3β-acetoxy-5α-hydroxy-7β,19-epoxy-cholestan-6-one] | 25 | 17.5 | outcome of injection of the 200 mg/kg suspension ([3]; 200 mg/kg as suspension, signs of pulmonary embolism in section): immediate death of the animal; dose up to which non-toxic / tolerable ([3]; injection into caudal vein, mice, final MTD not determinable because of solubility): up to 150 mg/kg
CC(C)CCC[C@@H](C)[C@H]1CC[C@H]2[C@@H]3[C@H]4OC[C@@]5(CCC(=O)C[C@]5(O)C4=O)[C@H]3CC[C@]12C [WIL-241, 5α-hydroxy-7β,19-epoxy-cholestane-3,6-dione] | 41 |  | 
CC(C)CCC[C@@H](C)[C@H]1CC[C@H]2[C@@H]3[C@H]4OC[C@@]5(CC[C@H](O)C[C@]5(OCc5ccccc5)C4=O)[C@H]3CC[C@]12C [WIL-242b, 5α-benzyloxy-3β-hydroxy-7β,19-epoxy-cholestan-6-one] | 37 | 40 | 
CC(C)CCC[C@@H](C)[C@H]1CC[C@H]2[C@@H]3[C@H]4OC[C@@]5(CCC(=O)C=C5C4=O)[C@H]3CC[C@]12C [WIL-270, 7β,19-epoxy-cholest-4-en-3,6-dione] | 20 | 18 | 
CC[C@H](CC[C@@H](C)[C@H]1CC[C@H]2[C@@H]3[C@H]4OC[C@@]5(CC[C@H](OC(C)=O)C[C@]5(O)C4=O)[C@H]3CC[C@]12C)C(C)C [WIL-DK-08, 3β-acetoxy-5α-hydroxy-7β,19-epoxy-stigmastan-6-one] | 50 | ~40 | 
CC[C@H](CC[C@@H](C)[C@H]1CC[C@H]2[C@@H]3[C@H]4OC[C@@]5(CC[C@H](O)C[C@]5(O)C4=O)[C@H]3CC[C@]12C)C(C)C [WIL-DK-09, 3β,5α-dihydroxy-7β,19-epoxy-stigmastan-6-one] | ~15 | ~38 | 
